Tests used:
A549 [1] = experiment: Antiproliferative activity against human A549 cells after 120 hrs by WST-8 assay; type: functional, cell-based; details: A549, 120 h
[2] = Antiproliferative activity against human PANC1 cells after 96 hrs by WST-8 assay; type: functional, cell-based; details: PANC-1, 96 h
A549 [3] = experiment: Ratio of (+)-Neopeltolide IC50 to compound IC50 for human A549 cells after 120 hrs by WST-8 assay; type: functional

SMILES: CCC[C@H]1C[C@@H](OC)C/C(C)=C\[C@@H]2C[C@@H](OC(=O)CCCCc3coc(CCCNC(=O)OC)n3)C[C@H](CC(=O)O1)O2
- IC50 (A549 [1]): > 10 µM
- IC50 [2]: 3.2 µM

SMILES: CCC[C@H]1C[C@@H](OC)C/C(C)=C\[C@@H]2C[C@@H](OC(=O)/C=C\CCc3coc(C=C(C)C)n3)C[C@H](CC(=O)O1)O2
- IC50 (A549 [1]): 3.9 µM
- IC50 [2]: 2.8 µM

SMILES: C/C=C\c1nc(CC/C=C\C(=O)O[C@H]2C[C@@H]3CC(=O)O[C@@H](CCC)C[C@@H](OC)C/C(C)=C\[C@H](C2)O3)co1
- IC50 (A549 [1]): 0.74 µM
- IC50 [2]: 0.44 µM

SMILES: CCC[C@H]1C[C@@H](OC)C/C(C)=C\[C@@H]2C[C@@H](OC(=O)/C=C\CCc3coc(/C=C\CNC(=O)OC)n3)C[C@H](CC(=O)O1)O2
- IC50 (A549 [1]): 0.0005 µM
- IC50 [2]: 0.0024 µM
- Ratio IC50 (A549 [3]): 3

SMILES: CCC[C@H]1C[C@@H](OC)C/C(C)=C\[C@@H]2C[C@@H](OC(=O)/C=C(/C)CCc3coc(/C=C\CNC(=O)OC)n3)C[C@H](CC(=O)O1)O2
- IC50 (A549 [1]): 0.0063 µM
- IC50 [2]: 0.0064 µM

SMILES: CCC[C@H]1C[C@@H](OC)C/C(C)=C\[C@@H]2C[C@@H](OC(=O)/C(C)=C\CCc3coc(/C=C\CNC(=O)OC)n3)C[C@H](CC(=O)O1)O2
- IC50 (A549 [1]): 0.0025 µM
- IC50 [2]: 0.0026 µM

SMILES: CCC[C@H]1C[C@@H](OC)C/C(C)=C\[C@@H]2C[C@@H](OC(=O)c3ccccc3CCc3coc(/C=C\CNC(=O)OC)n3)C[C@H](CC(=O)O1)O2
- IC50 (A549 [1]): 0.5 µM
- IC50 [2]: 0.075 µM

SMILES: CCC[C@H]1C[C@@H](OC)C/C(C)=C\[C@@H]2C[C@@H](OC(=O)/C=C\CCc3coc(CCCNC(=O)OC)n3)C[C@H](CC(=O)O1)O2
- IC50 (A549 [1]): 0.4 µM
- IC50 [2]: 0.2 µM

SMILES: CCC[C@H]1C[C@@H](OC)C/C(C)=C\[C@@H]2C[C@@H](OC(=O)CCCCc3coc(/C=C\CNC(=O)OC)n3)C[C@H](CC(=O)O1)O2
- IC50 (A549 [1]): 0.11 µM
- IC50 [2]: 0.026 µM

Reference: ChEMBL document CHEMBL3259583, “Synthesis and biological evaluation of (+)-neopeltolide analogues: importance of the oxazole-containing side chain” (Bioorg Med Chem Lett, 2014)
